Legend:
[1] = test system: Bovine PBMC; experiment: Cytokine production by bovine PBMC (48 hours, ELISA); type: cell-based; details: 10 μg/ml (H.D.) and 2.5 μg/ml (L.D.)
Method: FIG. 11 is a set of bar graphs showing differences between TLR8 ORN (SEQ ID NO:13) and TLR7/8 ORN (SEQ ID NO:21). SEQ ID NO:5 ORN was used as a control. Bovine PBMC were incubated with either 10 μg/ml ORN (HD) or 2.5 μg/ml ORN (LD) for 48 hours. Supernatants were collected and analyzed by ELISA. FIGS. 11a-c show the level of IL-12, IFN-γ, and TNF-alpha, respectively.
The assay was repeated with a TLR8 ORN (SEQ ID NO:13), a TLR 7/8 ORN (SEQ ID NO:21) and a control ORN (SEQ ID NO:5) (Table 3) at both a high dose (H.D., 10 μg/ml) and a low dose (L.D., 2.5 μg/ml).

[2] = test system: isolated monocytes and mDC; experiment: TNF-alpha and IL-12p40 production upon isolated monocytes and mDC stimulation; type: cell-based, human; details: 0.5 μM ORN complexed to 10 μg/ml DOTAP, 16 h
Method: FIG. 2 is a set of bar graphs depicting ORN induced cytokine production upon isolated pDC (FIG. 2a), monocytes (FIG. 2b) and mDC (FIG. 2c) stimulation. Cells were stimulated with 0.5 μM ORN complexed to 10 μg/ml DOTAP, 0.5 μM CpG ODN or DOTAP or media alone and IFN-alpha (FIG. 2a), TNF-alpha […] and IL-12p40 (FIG. 2c) were measured.
A similar assay testing different ORN sequences was performed using isolated pDC, monocytes and mDC stimulation. Cells were stimulated with 0.5 μM ORN complexed to 10 μg/ml DOTAP, 0.5 μM CpG ODN or DOTAP or media alone. After 16 h the supernatants were harvested and IFN-alpha, TNF-alpha and IL-12p40 levels were measured by ELISA.

[3] = test system: CD14-positive cell; experiment: CD80 surface marker expression upon CD14-positive cell stimulation (FACS); type: cell-based; details: human PBMC (data not shown) and CD14-positive cells, ORN complexed to DOTAP, 16 h
Method: FIG. 10 is a series of graphs showing surface marker expression upon human pDC stimulation with AU-rich or GU-rich ORN. CD123+ purified pDC (FIGS. 10a and 10b) or isolated monocytes (FIG. 10c) were incubated with 1 μM ORN complexed to 25 μg/ml DOTAP or DOTAP alone (FIG. 10a) or indicated amounts of ORN complexed to DOTAP or DOTAP alone (FIGS. 10b-10c). After 16 h cells were harvested and stained with CD123, CD11c and HLA-DR antibodies (FIGS. 10a and 10b) or CD14 and CD19 (FIG. 10c). Cell surface marker activation was measured by CD86 (FIGS. 10a and 10b) or CD80 (FIG. 10c) expression. […] FIG. 10b is a graph illustrating that CD86 surface marker expression upon human pDC stimulation is dose-dependent.
CD123+ purified pDC (FIGS. 10a and 10b) or isolated monocytes (FIG. 10c) were incubated with 1 μM ORN complexed to 25 μg/ml DOTAP or DOTAP alone (FIG. 10a) or indicated amounts of ORN complexed to DOTAP or DOTAP alone (FIGS. 10b-10c). After 16 h cells were harvested and stained with CD123, CD11c and HLA-DR antibodies (FIGS. 10a and 10b) or CD14 and CD19 (FIG. 10c). […] This activation was determined to be dose-dependent (FIG. 10b).

[4] = test system: Human PBMC; experiment: Cytokine production upon human PBMC stimulation (ORN complexed to DOTAP, 16 h, ELISA); type: cell-based; parameters: key to IFN-alpha / TNF-alpha: +: cytokine production; −: no cytokine production; details: for IFN-alpha / TNF-alpha: human PBMC stimulated for 16 h, supernatant ELISA
How it was run: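 Healthy-donor PBMCs were stimulated for 16 h with ORN complexed to DOTAP (25 μg/ml), titrated in 7 steps of 1/3 from 2 μM (to 0.9 nM). IFN-alpha and TNF-alpha in supernatants were measured by ELISA. Mean/max activity at 0.6 μM and EC50 came from 3-6 donors over two experiments.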

Substance | IFN-γ production [1] | IL-12p40 production (in words) [2] | TNF-alpha production (in words) [2] | CD80 surface marker expression [3] | IFN-alpha production upon PBMC stimulation (in words) ([4]; human PBMC) | IFN-alpha [4] | TNF-alpha [4] | IL-12 production [1] | TNF-alpha production [1]
U*U*A*U*U*A*U*U*A*U*U*A*U*U*A*U*U*A*U*U (UUAUUAUUAUUAUUAUUAUU; chemistry not fully specified) [SEQ ID NO: 13] | stimulated production of IFN-γ | clear TNF-alpha and IL-12p40 production | clear TNF-alpha and IL-12p40 production | no difference in CD80 surface marker expression | no IFN-alpha cytokine production | − | + |  | 
U*U*G*U*U*G*U*U*G*U*U*G*U*U*G*U*U*G*U*U (UUGUUGUUGUUGUUGUUGUU; listed as RNA, chemistry not fully specified) [SEQ ID NO: 21] | stimulated production of IFN-γ | clear TNF-alpha and IL-12p40 production | clear TNF-alpha and IL-12p40 production | no difference in CD80 surface marker expression |  | + | + | significant production of IL-12 and TNF-alpha | significant production of IL-12 and TNF-alpha

Source: US8354522B2, “Immunostimulatory oligoribonucleotides” (Coley Pharmaceutical GmbH, priority 2005, dated 2013)
